# Source: paper PMC5513037, “Examining the influence of specificity ligands and ATP-competitive ligands on the overall effectiveness of bivalent kinase inhibitors” (Proteome Science, 2017)
# How the values were obtained:
# Test in all cases: KAM-matrix competition in K562 lysate;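 on 0.001 uM KAM: median log10 fold change of treatment over DMSO control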;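 on 0.01 uM KAM: median log10 fold change of treatment over DMSO control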;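 on 0.1 uM KAM: median log10 fold change of treatment over DMSO control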;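 on 1 uM KAM: median log10 fold change of treatment over DMSO control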;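 on 10 uM KAM: median log10 fold change of treatment over DMSO control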
# Assay type in all cases: binding
# [1] = target: T1, TAOK1 (Homo sapiens, UniProt Q7L7X3)
# T1 construct: endogenous in cells; host or cells: K562 cell lysate
# T1 sequence (Q7L7X3 1-1001): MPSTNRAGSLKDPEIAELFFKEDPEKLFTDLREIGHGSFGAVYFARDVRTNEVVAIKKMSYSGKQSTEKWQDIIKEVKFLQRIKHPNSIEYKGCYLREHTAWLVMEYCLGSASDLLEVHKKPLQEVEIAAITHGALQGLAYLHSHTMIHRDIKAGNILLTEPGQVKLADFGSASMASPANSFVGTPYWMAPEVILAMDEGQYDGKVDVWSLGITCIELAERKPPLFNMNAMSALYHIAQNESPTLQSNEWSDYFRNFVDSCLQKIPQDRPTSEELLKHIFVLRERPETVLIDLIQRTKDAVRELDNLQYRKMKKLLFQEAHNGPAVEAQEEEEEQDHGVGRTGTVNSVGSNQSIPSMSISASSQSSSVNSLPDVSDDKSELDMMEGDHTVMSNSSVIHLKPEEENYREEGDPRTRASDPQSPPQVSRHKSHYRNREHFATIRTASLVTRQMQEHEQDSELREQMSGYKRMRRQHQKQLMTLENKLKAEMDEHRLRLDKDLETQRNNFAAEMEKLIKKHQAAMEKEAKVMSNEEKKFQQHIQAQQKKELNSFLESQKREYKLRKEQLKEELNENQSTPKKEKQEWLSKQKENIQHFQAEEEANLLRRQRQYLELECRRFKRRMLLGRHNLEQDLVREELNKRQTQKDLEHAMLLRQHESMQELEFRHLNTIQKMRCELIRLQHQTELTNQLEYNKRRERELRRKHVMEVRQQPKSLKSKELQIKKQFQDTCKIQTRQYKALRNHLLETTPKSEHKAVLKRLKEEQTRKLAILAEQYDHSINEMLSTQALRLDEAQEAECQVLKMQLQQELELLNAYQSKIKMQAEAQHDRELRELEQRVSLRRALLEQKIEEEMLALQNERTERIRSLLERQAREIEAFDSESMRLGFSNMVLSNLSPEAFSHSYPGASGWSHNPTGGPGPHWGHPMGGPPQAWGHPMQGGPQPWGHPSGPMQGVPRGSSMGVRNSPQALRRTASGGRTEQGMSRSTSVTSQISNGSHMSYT
# Method: (§1) Supplement 12953_2017_125_MOESM1_ESM.zip/MS_Supp Info.xlsx, sheet "KAM" | column: 10 uM KAM; 1 uM KAM; 0.1 uM KAM; 0.01 uM KAM; 0.001 uM KAM; RB50
# [2] = target: T2, FAM20B (Homo sapiens, UniProt O75063);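 on 0.001 uM KAM: median log10 fold change of treatment over DMSO control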;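 on 0.01 uM KAM: median log10 fold change of treatment over DMSO control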;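 on 0.1 uM KAM: median log10 fold change of treatment over DMSO control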;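 on 1 uM KAM: median log10 fold change of treatment over DMSO control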;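 on 10 uM KAM: median log10 fold change of treatment over DMSO control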
# T2 construct: endogenous in cells; host or cells: K562
# T2 sequence (O75063 1-409): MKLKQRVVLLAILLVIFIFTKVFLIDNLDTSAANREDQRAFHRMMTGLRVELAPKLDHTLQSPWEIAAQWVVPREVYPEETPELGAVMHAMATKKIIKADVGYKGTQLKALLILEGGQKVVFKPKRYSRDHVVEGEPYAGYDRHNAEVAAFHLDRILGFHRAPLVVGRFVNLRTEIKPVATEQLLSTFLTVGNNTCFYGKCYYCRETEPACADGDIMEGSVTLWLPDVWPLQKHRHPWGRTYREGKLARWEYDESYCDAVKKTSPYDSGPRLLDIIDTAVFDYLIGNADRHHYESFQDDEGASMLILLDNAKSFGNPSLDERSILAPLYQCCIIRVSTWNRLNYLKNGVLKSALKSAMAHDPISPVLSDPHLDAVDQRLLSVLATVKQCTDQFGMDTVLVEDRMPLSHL
# Method: as §1
# [3] = target: T3, OBSCN (Homo sapiens, UniProt Q5VST9);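 on 0.001 uM KAM: median log10 fold change of treatment over DMSO control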;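 on 0.01 uM KAM: median log10 fold change of treatment over DMSO control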;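 on 0.1 uM KAM: median log10 fold change of treatment over DMSO control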;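 on 1 uM KAM: median log10 fold change of treatment over DMSO control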;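 on 10 uM KAM: median log10 fold change of treatment over DMSO control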
# T3 construct: endogenous in cells; host or cells: K562
# Method: as §1
# [4] = target: T4, DYRK1A (Homo sapiens, UniProt Q13627)
# T4 construct: endogenous in cells; host or cells: K562
# Method: as §1
# [5] = target: T5, ADCK1 (Homo sapiens, UniProt Q86TW2);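 on 0.001 uM KAM: median log10 fold change of treatment over DMSO control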;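 on 0.01 uM KAM: median log10 fold change of treatment over DMSO control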;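 on 0.1 uM KAM: median log10 fold change of treatment over DMSO control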;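 on 1 uM KAM: median log10 fold change of treatment over DMSO control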;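 on 10 uM KAM: median log10 fold change of treatment over DMSO control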
# T5 construct: endogenous in cells; host or cells: K562
# T5 sequence (Q86TW2 1-530): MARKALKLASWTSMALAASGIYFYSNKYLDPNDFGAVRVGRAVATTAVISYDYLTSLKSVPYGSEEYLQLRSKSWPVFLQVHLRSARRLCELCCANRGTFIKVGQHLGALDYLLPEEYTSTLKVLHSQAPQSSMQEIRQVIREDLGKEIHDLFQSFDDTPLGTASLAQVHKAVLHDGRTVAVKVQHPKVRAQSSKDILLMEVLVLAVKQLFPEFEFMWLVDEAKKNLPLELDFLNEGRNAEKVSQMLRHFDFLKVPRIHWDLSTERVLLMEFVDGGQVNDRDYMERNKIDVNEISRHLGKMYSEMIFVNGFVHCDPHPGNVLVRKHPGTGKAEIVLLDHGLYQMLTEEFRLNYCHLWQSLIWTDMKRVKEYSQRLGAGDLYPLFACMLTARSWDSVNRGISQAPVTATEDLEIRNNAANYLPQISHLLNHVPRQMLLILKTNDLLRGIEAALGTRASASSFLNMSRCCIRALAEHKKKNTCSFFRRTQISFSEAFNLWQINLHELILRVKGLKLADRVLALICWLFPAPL
# Method: as §1
# [6] = read-out: RB50 (the source's name)
# [7] = KAM 0.001-10 uM, read-out: RB50 (the source's name)
compound,measurement,setting,value
N#CCc1ccc(Nc2nc(NCCCN)cc(Nc3cc(C4CC4)[nH]n3)n2)cc1 [KAM],median Log10 fold change,[1]; 0.001 uM KAM,0.00525
same,median Log10 fold change,[1]; 0.01 uM KAM,0.00511
same,median Log10 fold change,[1]; 0.1 uM KAM,-0.09468
same,median Log10 fold change,[1]; 1 uM KAM,-0.2373
same,median Log10 fold change,[1]; 10 uM KAM,-0.3152
same,IC50,[1]; [6],4.15 µM
same,IC50,[2]; [7],> 10 µM
same,0.001 uM KAM,[2]; relative to 0 uM KAM = 0,-0.03245
same,0.01 uM KAM,[2]; relative to 0 uM KAM = 0,-0.03308
same,0.1 uM KAM,[2]; relative to 0 uM KAM = 0,-0.01554
same,1 uM KAM,[2]; relative to 0 uM KAM = 0,-0.05098
same,10 uM KAM,[2]; relative to 0 uM KAM = 0,0.1003
same,IC50,[3]; [7],> 10 µM
same,0.001 uM KAM,[3]; relative to 0 uM KAM = 0,-0.03363
same,0.01 uM KAM,[3]; relative to 0 uM KAM = 0,0.02355
same,0.1 uM KAM,[3]; relative to 0 uM KAM = 0,-0.066
same,1 uM KAM,[3]; relative to 0 uM KAM = 0,-0.08935
same,10 uM KAM,[3]; relative to 0 uM KAM = 0,-0.04979
same,median Log10 fold change,[4]; 0.001 uM KAM,-0.05439
same,median Log10 fold change,[4]; 0.01 uM KAM,-0.0501
same,median Log10 fold change,[4]; 0.1 uM KAM,-0.184
same,median Log10 fold change,[4]; 1 uM KAM,-0.2641
same,median Log10 fold change,[4]; 10 uM KAM,-0.4024
same,IC50,[4]; [6],1.47 µM
same,IC50,[5]; [7],> 10 µM
same,0.001 uM KAM,[5]; relative to 0 uM KAM = 0,-0.001358
same,0.01 uM KAM,[5]; relative to 0 uM KAM = 0,-0.0336
same,0.1 uM KAM,[5]; relative to 0 uM KAM = 0,-0.06203
same,1 uM KAM,[5]; relative to 0 uM KAM = 0,-0.1949
same,10 uM KAM,[5]; relative to 0 uM KAM = 0,-0.2595
